Paper PMC7054097, “Vanillin Production in Pseudomonas: Whole-Genome Sequencing of Pseudomonas sp. Strain 9.1 and Reannotation of Pseudomonas putida CalA as a Vanillin Reductase” (Applied and Environmental Microbiology, 2020)

Columns and labels:
[1] = biological target: T1, PP_3839 (adhP) gene product; calA-II (coniferyl alcohol dehydrogenase) (Pseudomonas putida, UniProt Q88G86); assay: soluble cell extract, absorbance at […] nm; assay type: biochemical; conditions: 0.5 mM NAD+, 1 mM coniferyl alcohol, 33 mM sodium phosphate pH 7, 30 °C
T1 construct: whole cells or soluble extract

[2] = biological target: T1, PP_3839 (adhP) gene product; calA-II (coniferyl alcohol dehydrogenase); assay: soluble cell extract, absorbance at […] nm; also whole-cell HPLC; assay type: biochemical; conditions: 1 mM substrate, 0.5 mM NAD+, 33 mM sodium phosphate pH 7, 30 °C

T1 sequence (Q88G86 1-336): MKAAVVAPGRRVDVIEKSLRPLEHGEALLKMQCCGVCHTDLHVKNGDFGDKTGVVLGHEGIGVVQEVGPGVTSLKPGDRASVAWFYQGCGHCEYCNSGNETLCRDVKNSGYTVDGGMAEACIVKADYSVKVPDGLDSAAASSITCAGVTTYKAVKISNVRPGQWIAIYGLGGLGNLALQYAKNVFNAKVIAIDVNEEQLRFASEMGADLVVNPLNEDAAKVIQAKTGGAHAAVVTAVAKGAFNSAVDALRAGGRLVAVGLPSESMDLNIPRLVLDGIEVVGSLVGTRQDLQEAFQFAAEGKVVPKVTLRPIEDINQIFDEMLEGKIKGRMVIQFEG

Row | SMILES | soluble cell extract, absorbance at 365 nm [1] | soluble cell extract, absorbance at 365 nm; also whole-cell HPLC [2]
1 | NC(=O)c1ccc[n+]([C@@H]2O[C@H](COP(=O)(O)OP(=O)(O)OC[C@H]3O[C@@H](n4cnc5c(N)ncnc54)[C@H](O)[C@@H]3O)[C@@H](O)[C@H]2O)c1 [NAD^+] | coniferyl alcohol was rapidly oxidized in the presence of NAD^+ | –
2 | COc1cc(/C=C/CO)ccc1O [coniferyl alcohol] | – | coniferyl alcohol was rapidly oxidized in the presence of NAD^+
